SMILES strings stand for the structures.

The data set in a line: method code SF-HPLC, from DOI: 10.1002/qsar.200860138. As to conditions: pH 3.0.
The term logD denotes the decadic logarithm of the distribution of all forms, ionised or not, between an organic phase and buffer at a given pH. A higher logD goes with a more lipophilic compound. Consider `O=C(O)Cc1ccc(C(=O)c2ccccc2)[nH]1`, for which the logD was 1.87.
`COc1ccc(C(=O)c2ccn(CC(=O)O)c2)cc1` returned a logD of 1.57.
To `Cc1ccc(C(=O)c2ccn(CC(=O)O)c2)cc1` belongs 1.27; to `O=C(O)Cn1ccc(C(=O)c2ccc(Cl)cc2)c1`, 1.95; to `O=C(O)Cn1ccc(C(=O)c2ccc3ccccc3c2)c1`, 2.27.
The compound `O=C(O)Cn1cc(C(=O)c2ccccc2)c2ccccc21` registered a logD of 2.57.
For `COc1ccc(C(=O)c2cccn2CC(=O)O)cc1` the value was 1.65; for `O=C(O)Cn1ccc(C(=O)c2ccc(C(F)(F)F)cc2)c1`, 2.
Consider `O=C(O)Cn1ccc(C(=O)c2ccc([N+](=O)[O-])cc2)c1`, for which the logD was 0.93.
To `COc1ccc(C(=O)c2cc(C(=O)c3ccc(OC)cc3)n(CC(=O)O)c2)cc1` belongs 3.15; to `O=C(O)Cn1ccc(-c2nc3ccccc3s2)c1`, 2.22.
Consider `O=C(O)Cn1cc(C(=O)c2ccccc2)cc1C(=O)c1ccccc1`, for which the logD came out at 2.12.

Values taken from the SangsterLogP compilation.
